Assay results taken from patent US20130178453A1, “Cannabinoid Agonists” (priority 2010, published 2013).
pEC50: −log10 of the molar value. Like-named read-outs stand apart in the source and are kept apart here.

Experiments:
hCB1 = hCB1 (Homo sapiens, UniProt P21554); assay: hCB1 radioligand binding assay ([3H]-CP 55,940 displacement); conditions: HEK membranes
Excerpt: (§1) cDNA expression clones for human CB 1 (hCB1, Genbank Accession No. AY225225) and human CB2 (hCB2, Genbank Accession No. AY242132) expressed in vector pcDNA3.1+ were purchased from UMR cDNA Resource Center, Rolla, Mo. (Clone ID CNR01L000 for hCB1; CNR0200000 for hCB2).
Stable, HEK-293-derived cell lines that recombinantly express hCB1 or hCB2 were established. In brief, the clone hCB1 (CNR1L) or hCB2 (CNR2) was transfected into human embryonic kidney cells (HEK-293) using Lipofectamine 2000 (Gibco, Cat#11668-019) according to the manufacturer's protocol. Transfected clones were isolated by single colony purification and clones were screened for receptor expression using a whole cell, ^3H—CP 55,940 radioligand binding assay. HEK-293 stable cells were maintained in Dulbecco's modified Eagles medium (DMEM) containing 10% fetal bovine serum, 2 mM L-glutamine and 0.5 mg/mL G-418.
(§2) Membranes were isolated from transfected cells as follows. Monolayers of cultured cells were washed twice with phosphate-buffered saline (PBS). Cells were scraped into 20 mM HEPES, pH 7.4, 10 mM EDTA containing complete cocktail protease inhibitors (Roche, Catalog #11 697 498 001), and were homogenized by an electric-powered mechanical probe homogenizer (Omni GLH; probe G7-195S) for 40 seconds at 7000 rpm. Homogenates were centrifuged 10 minutes at 1000×g at 4° C. The supernatant was collected and was centrifuged for 1 hour at 40,000×g. The supernatant was then decanted and the resulting pellet was re-suspended in 20 mM HEPES, pH 7.4, 5 mM MgCl2, 1 mM EDTA, 10% sucrose with complete cocktail protease inhibitors. Protein concentration of membrane suspensions were measured by Bradford Protein Assay using bovine serum albumin as the standard (BioRad catalog #500-0006). Protein concentrations of membrane suspensions were adjusted with the final buffer in the range of 5 to 10 mg/mL and were stored at −80° C. until further use.
Radioligand binding assays were performed by incubating membranes (2-10 μg protein) prepared from HEK-293 cells expressing recombinant human cannabinoid receptors, CB 1 or CB2, at room temperature with 0.5 nM cannabinoid receptor agonist, [^3H]-CP 55,940 (Perkin Elmer, catalog #NET 1051) in 0.2 mL of binding buffer (50 mM Tris-HCl, pH 7.5, 5 mM MgCl2, 2.5 mM EDTA) and 0.1% fatty acid free bovine serum albumin (Sigma Cat. #A0821) for 90 minutes. A rapid filtration technique using Millipore FB filter plates (Catalog #MADVNOB) and filtration apparatus (Millipore system Catalog MAVM0960R) with vacuum aspiration was used to harvest and rinse labeled membranes (8 times with 0.2 mL of chilled binding buffer). The radioactivity bound to the filters was counted with 0.05 mL of liquid scintillant (UltraGold MV, PerkinElmer catalog #6013159) in a scintillation counter (Perkin Elmer Microbeta instrument). Nonspecific binding was determined in the presence of unlabeled 1 μM CP 55,940 (Sigma Aldrich, catalog #C1112). Binding data were analyzed using GraphPad Prism (GraphPad Software, Inc. San Diego, Calif.).

hCB2 [1] = target: T1, hCB2 (Homo sapiens, UniProt P34972); assay: hCB2 cAMP agonist assay (HEK-293 cells); assay type: cell-based; conditions: for EC50: cAMP agonist, HEK, 96-well, read-out: hCB2 EC50 (cAMP ag, nM, HEK (96-well))
Protocol: as §1
cAMP assays were performed in HEK-293 cells stably expressing human CB 1 or CB2 receptors. […] Cells suspensions were centrifuged and the cells were washed once with PBS, were centrifuged again, and the cells were resuspended in HBSS (Hank's Balanced Salt Solution, Cellgro, Cat #21-022-CV) solution containing 10 mM HEPES and 0.1% fatty acid free BSA (Sigma, Cat #A0281). Cell suspensions were prepared at 1,500,000 cells per mL. Stock solutions of test substances (10 mM) in DMSO were diluted to 1 mM using 30% DMSO as diluent. Test substances of solutions (1 mM) were further diluted down to 3× of final assay concentrations in the above HBSS buffer containing 0.1% BSA in the presence of 90 uM forskolin (Sigma Cat#F6886). To perform the assay, 20 μL of cell suspension (1,500,000 cells/mL) were added to each well in 96 well plate and treated with 10 μL test substance solution diluted as described above. Cells and compounds were incubated at 37° C. for 30 minutes. Cells were lysed and cAMP concentration was measured using DiscoveRx-XS+ cAMP assay kit (DiscoveRx Corporation Ltd., Fremont, Calif., USA, Cat #90-0075-03), following the manufacturer's protocol. GraphPad Prism software was used to calculate EC50 values using sigmoidal dose response curve fitting. The maximal amount of cAMP produced by forskolin was defined as 100%.

hCB2 [2] = target: T1, hCB2; assay: hCB2 GTPγS agonist assay (HEK-293 membranes); assay type: biochemical; conditions: for EC50: GTPγS agonist, HEK membranes, read-out: hCB2 EC50 (GTPyS ag, nM, HEK)
Protocol: as §1
as §2, with “Cells were scraped into 20 mM HEPES, pH 7.4, 10 mM EDTA containing complete cocktail protease inhibitors (Roche, Catalog #11 697 498 001), and were homogenized by an electric-powered mechanical probe homogenizer (Omni GLH; probe G7-195S) for 40 seconds at 7000 rpm.” left out
^35S GTPγS binding assays were performed by incubating recombinant cell membranes prepared above (5 μg) in the presence of scintillation proximity assay beads (SPA beads, Catalog #RPNQ0252 GE Healthcare, Buckinghamshire, England) in GTPγS binding buffer [50 mM HEPES (pH 7.4), 100 mM NaCl, 5 mM MgCl2, 0.001% saponin (Sigma catalog #S4521)] supplemented with 20 uM GDP (Sigma catalog #G7127) in the presence or absence of test compound. The reaction was carried out in 96-well microplates with 0.1 nM [^35S]GTPγS (specific activity=1250 Ci/mmol; Perkin Elmer catalog #NEG030X250UC) in a final volume of 100 μL. After a 90 min room temperature incubation, the reaction was analyzed using a scintillation counter (Perkin Elmer Microbeta instrument). Binding data were analyzed using GraphPad Prism.

hCB2 [3] = target: T1, hCB2; assay: hCB2 radioligand binding assay ([3H]-CP 55,940 displacement); conditions: HEK membranes
Protocol: as §1
as §2, with “Cells were scraped into 20 mM HEPES, pH 7.4, 10 mM EDTA containing complete cocktail protease inhibitors (Roche, Catalog #11 697 498 001), and were homogenized by an electric-powered mechanical probe homogenizer (Omni GLH; probe G7-195S) for 40 seconds at 7000 rpm.” left out
A rapid filtration technique using Millipore FB filter plates (Catalog #MADVNOB) and filtration apparatus (Millipore system Catalog MAVM0960R) with vacuum aspiration was used to harvest and rinse labeled membranes (8 times with 0.2 mL of chilled binding buffer). […] Binding data were analyzed using GraphPad Prism (GraphPad Software, Inc. San Diego, Calif.).

hCB1, sequence (P21554 whole entry): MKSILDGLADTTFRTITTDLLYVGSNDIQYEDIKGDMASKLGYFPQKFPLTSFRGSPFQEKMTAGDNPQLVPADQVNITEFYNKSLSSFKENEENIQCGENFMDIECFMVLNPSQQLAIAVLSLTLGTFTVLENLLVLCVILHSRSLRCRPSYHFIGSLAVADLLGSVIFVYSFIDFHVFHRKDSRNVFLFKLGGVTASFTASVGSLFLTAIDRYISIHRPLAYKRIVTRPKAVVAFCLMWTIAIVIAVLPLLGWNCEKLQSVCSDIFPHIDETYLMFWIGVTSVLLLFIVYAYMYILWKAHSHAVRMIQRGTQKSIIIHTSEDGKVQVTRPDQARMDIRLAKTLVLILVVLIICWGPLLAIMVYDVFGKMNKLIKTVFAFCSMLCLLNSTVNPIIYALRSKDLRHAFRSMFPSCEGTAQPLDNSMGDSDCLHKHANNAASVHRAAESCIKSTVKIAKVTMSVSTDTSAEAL
T1 sequence (P34972 whole entry): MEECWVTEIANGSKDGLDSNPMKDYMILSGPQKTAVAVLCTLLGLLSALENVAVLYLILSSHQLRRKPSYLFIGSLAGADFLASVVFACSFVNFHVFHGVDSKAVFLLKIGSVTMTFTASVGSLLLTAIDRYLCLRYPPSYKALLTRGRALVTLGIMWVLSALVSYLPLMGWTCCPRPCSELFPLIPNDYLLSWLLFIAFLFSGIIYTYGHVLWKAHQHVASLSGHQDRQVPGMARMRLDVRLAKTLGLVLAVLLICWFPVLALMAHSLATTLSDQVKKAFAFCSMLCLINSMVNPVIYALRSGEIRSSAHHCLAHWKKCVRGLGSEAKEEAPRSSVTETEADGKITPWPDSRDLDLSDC

Row | Compound | IC50 (hCB1; hCB1 IC50 (CP displ, nM, HEK)) [nM] | pEC50 (hCB2 [1]) | pEC50 (hCB2 [2]) | IC50 (hCB2 [3]; hCB2 IC50 (CP displ, nM, HEK)) [nM] | EC50 (hCB2 [1]) [nM] | EC50 (hCB2 [2]) [nM] | hCB1 IC50 (CP displ, nM, HEK) (hCB1) | IC50 (hCB1; read-out: hCB1 IC50 (CP displ, nM, HEK)) [nM] | IC50 (hCB2 [3]; read-out: hCB2 IC50 (CP displ, nM, HEK)) [nM]
1 | CCCn1c(C(=O)c2c(C)n(CCN3CCCCC3)c3ccccc23)cc2ccsc21 [Compound I-59] | 100 to 1000 | > 7.00 | 6.00 to 7.00 | < 100 | – | – | – | – | –
2 | CCCn1c(C)c(C(=O)c2cc3sccc3s2)c2ccccc21 [Compound I-20] | 1000 to 10000 | 6.00 to 7.00 | 6.00 to 7.00 | 1000 to 10000 | – | – | – | – | –
3 | Cc1c(C(=O)c2cccc3ccccc23)c2sccc2n1CCN1CCOCC1 [Compound I-1] | 100 to 1000 | – | > 7.00 | < 100 | – | – | – | – | –
4 | CCCn1c(C)c(C(=O)c2cc3ccsc3n2CC)c2c1CCCCC2 [Compound I-87] | 1000 to 10000 | – | – | < 100 | < 100 | < 100 | – | – | –
5 | C=Cn1c(C)c(C(=O)c2cc3ccsc3n2CC)c2ccccc21 [Compound I-24] | – | – | – | 100 to 1000 | < 100 | 100 to 1000 | B/C | – | –
6 | Cc1c(C(=O)c2cccc3ccccc23)c2ccsc2n1CCN1CCOCC1 [Compound I-5] | 100 to 1000 | – | > 7.00 | < 100 | – | – | – | – | –
7 | CCCn1c(C(=O)c2c(C)n(CC)c3ccccc23)cc2ccsc21 [Compound I-50] | 1000 to 10000 | > 7.00 | > 7.00 | < 100 | – | – | – | – | –
8 | CCCn1c(C)c(C(=O)c2cccc3ccccc23)c2ccsc21 [Compound I-2] | 1000 to 10000 | – | 6.00 to 7.00 | 100 to 1000 | – | – | – | – | –
9 | CCCn1c(C(=O)c2c(C)[nH]c3sccc23)cc2ccccc21 [Compound I-13] | – | – | – | – | – | – | – | > 10000 | > 10000
10 | CCCn1c(C)c(C(=O)c2cc3ccsc3n2C)c2ccccc21 [Compound I-55] | > 10000 | > 7.00 | 6.00 to 7.00 | 100 to 1000 | – | – | – | – | –
11 | Cc1c(C(=O)c2cc3ccccc3[nH]2)c2ccsc2n1CCN1CCOCC1 [Compound I-10] | 1000 to 10000 | – | – | 100 to 1000 | – | – | – | – | –
12 | CCCn1c(C)c(C(=O)c2cccc3ccccc23)c2sccc21 [Compound I-12] | 1000 to 10000 | – | > 7.00 | 100 to 1000 | – | – | – | – | –
13 | Cc1[nH]c2ccsc2c1C(=O)c1cccc2ccccc12 [Compound I-4] | > 10000 | – | – | 1000 to 10000 | – | 1000 to 10000 | – | – | –
14 | CCCn1c(C)c(C(=O)c2cc3occc3[nH]2)c2ccccc21 [Compound I-71] | > 10000 | – | – | 1000 to 10000 | – | – | – | – | –
15 | CCCn1c(C)c(C(=O)c2cc3ccsc3n2CCC)c2cc(OC)ccc21 [Compound I-61] | 100 to 1000 | 6.00 to 7.00 | – | < 100 | – | – | – | – | –
16 | CCn1c(C(=O)c2c(C)n(CCC(=O)O)c3ccccc23)cc2ccsc21 [Compound I-27, 3-(3-(6-ethyl-6H-thieno[2,3-b]pyrrole-5-carbonyl)-2-methyl-1H-indol-1-yl)propanoic acid] | > 10000 | – | – | 100 to 1000 | 100 to 1000 | – | – | – | –
17 | CCCn1c(C)c(C(=O)c2cc3cc(C)n(CCC)c3s2)c2ccccc21 [Compound I-56] | 1000 to 10000 | > 7.00 | > 7.00 | < 100 | – | – | – | – | –
18 | CCn1c(C(=O)c2c(C)n(CCCCl)c3ccccc23)cc2ccsc21 [Compound I-18] | 100 to 1000 | > 7.00 | > 7.00 | < 100 | – | – | – | – | –
19 | CCCn1c(C)c(C(=O)c2cc3ccsc3n2CC)c2c1CCCC2 [Compound I-85] | 1000 to 10000 | > 7.00 | > 7.00 | < 100 | – | – | – | – | –
20 | CCn1c(C(=O)c2c[nH]c3ccccc23)cc2ccsc21 [Compound I-37] | > 10000 | – | – | 100 to 1000 | < 100 | 100 to 1000 | – | – | –
21 | CCCn1c(C)c(C(=O)c2cc3cc(Cl)sc3[nH]2)c2ccccc21 [Compound I-48] | 1000 to 10000 | 6.00 to 7.00 | 6.00 to 7.00 | 100 to 1000 | – | – | – | – | –
22 | CCCn1c(C)c(C(=O)c2cc3ccsc3s2)c2ccccc21 [Compound I-46] | 1000 to 10000 | 6.00 to 7.00 | 6.00 to 7.00 | 100 to 1000 | – | – | – | – | –
23 | CCCn1c(C)c(C(=O)c2cc3cc(C)[nH]c3s2)c2ccccc21 [Compound I-75] | > 10000 | – | – | 1000 to 10000 | – | – | – | – | –
24 | CCCn1c(C)c(C(=O)c2cc3cc(C)n(CCC)c3s2)c2ccccc21 [Compound I-63] | – | – | – | 100 to 1000 | – | – | – | – | –
25 | CCCn1c(C)c(C(=O)c2cc3ccsc3n2CC)c2c1CCC(C)(C)C2 [Compound I-65] | 1000 to 10000 | – | – | < 100 | < 100 | < 100 | – | – | –
26 | CCCn1c(C(=O)c2c3c(n(CCN4CCOCC4)c2C)CCCC3)cc2ccsc21 [Compound I-79] | 100 to 1000 | – | – | < 100 | < 100 | < 100 | – | – | –
27 | CCCn1c(C)c(C(=O)c2cc3ccsc3n2CCC)c2c1CCC(C)(C)C2 [Compound I-35] | 100 to 1000 | – | – | < 100 | < 100 | < 100 | – | – | –
28 | CCCn1c(C(=O)c2c[nH]c3ncccc23)cc2ccsc21 [Compound I-43] | > 10000 | – | – | 1000 to 10000 | – | 100 to 1000 | – | – | –
29 | CCCn1c(C)c(C(=O)c2c(C)n(CCC)c3sccc23)c2ccccc21 [Compound I-7] | 1000 to 10000 | – | – | 100 to 1000 | – | – | – | – | –
30 | Cc1[nH]c2sccc2c1C(=O)c1cccc2ccccc12 [Compound I-3] | > 10000 | – | > 7.00 | 1000 to 10000 | – | – | – | – | –
